Results taken from BindingDB's records for doi:10.1016/j.bioorg.2015.05.009 (Peking University, 2015).
pIC50: −log10 of the molar value.

Biological target: Glycogen synthase kinase-3 beta (Homo sapiens, UniProt P49841)
Experiment: Kinase-Glo Luminescent Kinase Assay
Details: pH 7.4
Experimental: Briefly, recombinant human GSK3β (1 µM, 10 µL) was mixed with 10 µL of GSK3β substrate ([…]pSEDEEE, 100 µM), 19 µL of 2.5 × kinase buffer (50 mM Tris-HCl, pH 7.4, 25 mM MgCl2), 10 µL of 10 µM ATP, 1 µL of the indicated amount of chemicals in DMSO to a final volume of 50 µL. Control reaction without kinase was set up. The mixtures were incubated at 30 °C for 40 min. The enzymatic reaction was stopped with 50 µL of Kinase-Glo reagent. Glow-type luminescence was recorded after 10 min.

Chain of Glycogen synthase kinase-3 beta (P49841 whole entry): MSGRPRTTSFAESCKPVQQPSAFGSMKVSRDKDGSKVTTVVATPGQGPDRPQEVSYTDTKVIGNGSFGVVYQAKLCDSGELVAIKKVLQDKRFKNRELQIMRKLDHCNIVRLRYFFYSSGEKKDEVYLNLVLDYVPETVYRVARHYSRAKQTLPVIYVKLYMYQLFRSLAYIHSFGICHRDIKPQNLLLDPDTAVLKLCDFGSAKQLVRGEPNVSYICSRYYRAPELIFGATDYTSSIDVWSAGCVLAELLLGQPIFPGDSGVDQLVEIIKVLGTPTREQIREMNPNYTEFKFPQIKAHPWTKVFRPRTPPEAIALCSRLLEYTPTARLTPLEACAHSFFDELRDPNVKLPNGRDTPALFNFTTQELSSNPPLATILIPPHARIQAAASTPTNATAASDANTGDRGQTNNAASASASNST

Compound | pIC50
COc1cc2c(C)cc3c(c2cc1OC)C(=O)NC3=O [7,8-Dimethoxy-5-methyl-1H-benzo[e]isoindole-1,3(2H)-dione] | 6.00
COc1cc2c(CNC3CCN(S(=O)(=O)c4ccccc4[N+](=O)[O-])CC3)cc3c(c2cc1OC)C(=O)NC3=O [7,8-dimethoxy-5-((1-(2-nitrophenylsulfonyl)piperidin-4-ylamino)methyl)-1H-benzo[e]isoindole-1,3(2H)-dione (8f)] | 6.28
COc1cc2c(CNC3CCN(S(=O)(=O)c4ccc(C(F)(F)F)cc4)CC3)cc3c(c2cc1OC)C(=O)NC3=O [7,8-dimethoxy-5-((1-(4-(trifluoromethyl)phenylsulfonyl)piperidin-4-ylamino)methyl)-1Hbenzo[e]isoindole-1,3 (2H)-dione (8e)] | 6.28
COc1ccc(S(=O)(=O)N2CCC(NCc3cc4c(c5cc(OC)c(OC)cc35)C(=O)NC4=O)CC2)cc1 [7,8-dimethoxy-5-((1-(4-methoxyphenylsulfonyl)piperidin-4-ylamino)methyl)-1H-benzo[e]isoindole-1,3(2H)-dione (8b)] | 5.58
COc1cc2c(CNC3CCN(S(=O)(=O)c4ccc([N+](=O)[O-])cc4)CC3)cc3c(c2cc1OC)C(=O)NC3=O [7,8-dimethoxy-5-((1-(4-nitrophenylsulfonyl)piperidin-4-ylamino)methyl)-1H-benzo[e]isoindole-1,3(2H)-dione (8c)] | 6.51
COc1cc2c(CNC3CCN(S(C)(=O)=O)CC3)cc3c(c2cc1OC)C(=O)NC3=O [7,8-dimethoxy-5-((1-(methylsulfonyl)piperidin-4-ylamino)methyl)-1H-benzo[e]isoindole-1,3(2H)-dione (8d)] | 6.44
COc1cc2c(CNC3CCN(S(=O)(=O)c4ccccc4)CC3)cc3c(c2cc1OC)C(=O)NC3=O [7,8-dimethoxy-5-((1-(phenylsulfonyl)piperidin-4-ylamino)methyl)-1H-benzo[e]isoindole-1,3(2H)-dione (8g)] | 5.99
COc1cc2c(CNC3CCN(S(=O)(=O)c4cccc5cccnc45)CC3)cc3c(c2cc1OC)C(=O)NC3=O [7,8-dimethoxy-5-((1-(quinolin-8-ylsulfonyl)piperidin-4-ylamino)methyl)-1H-benzo[e]isoindole-1,3(2H)-dione (8h)] | 5.82
COc1cc2c(CNC3CCN(S(=O)(=O)c4cccs4)CC3)cc3c(c2cc1OC)C(=O)NC3=O [7,8-dimethoxy-5-((1-(thiophen-2-ylsulfonyl)piperidin-4-ylamino)methyl)-1H-benzo[e]isoindole-1,3(2H)-dione (8i)] | 6.27
COc1cc2c(CNC3CCN(S(=O)(=O)c4ccc(C)cc4)CC3)cc3c(c2cc1OC)C(=O)NC3=O [7,8-dimethoxy-5-({[1-(4-methylbenzenesulfonyl)piperidin-4-yl]amino}methyl)-1H,2H,3H-benzo[e]isoindole-1,3-dione (8a)] | 5.43
